Data reported in ChEMBL document CHEMBL3217737, “Discovery of a highly selective FLT3 kinase inhibitor from phenotypic cell viability profiling” (Medchemcomm, 2013).
Active and inactive are the calls of the source. No cut-off for these calls is given here.

Legend:
[1] = target: Vascular endothelial growth factor receptor 3 (Homo sapiens) (UniProt P35916); experiment: Inhibition of VEGFR3 (unknown origin) at 10 uM assessed as residual enzyme activity
[2] = target: Serine/threonine-protein kinase PAK 1 (Homo sapiens) (UniProt Q13153); experiment: Inhibition of PAK1 (unknown origin) at 10 uM assessed as residual enzyme activity
[3] = target: Platelet-derived growth factor receptor alpha (Homo sapiens) (UniProt P16234); experiment: Inhibition of PDGFRalpha (unknown origin) at 10 uM assessed as residual enzyme activity
MV4-11 [4] = experiment: Cytotoxicity against human MV4-11 cells assessed as cell growth inhibition after 24 hrs by WST1 assay; assay type: functional, cell-based
[5] = target: Serine/threonine-protein kinase Nek4 (Homo sapiens) (UniProt P51957); experiment: Inhibition of STK2 (unknown origin) at 10 uM assessed as residual enzyme activity
[6] = target: Dual specificity mitogen-activated protein kinase kinase 1 (Homo sapiens) (UniProt Q02750); experiment: Inhibition of MEK1 (unknown origin) at 10 uM assessed as residual enzyme activity
[7] = target: Focal adhesion kinase 1 (Homo sapiens) (UniProt Q05397); experiment: Inhibition of FAK (unknown origin) at 10 uM assessed as residual enzyme activity
[8] = target: Mast/stem cell growth factor receptor Kit (Homo sapiens) (UniProt P10721); experiment: Inhibition of c-KIT (unknown origin) at 10 uM assessed as residual enzyme activity
[9] = target: Tyrosine-protein kinase Lck (Homo sapiens) (UniProt P06239); experiment: Inhibition of LCK (unknown origin) at 10 uM assessed as residual enzyme activity
[10] = target: Serine/threonine-protein kinase A-Raf (Homo sapiens) (UniProt P10398); experiment: Inhibition of ARAF (unknown origin) at 10 uM assessed as residual enzyme activity
HL-60 [11] = experiment: Inhibition of STAT5 phosphorylation in human HL60 cells at 0.1 to 10 uM after 12 hrs by Western blot method; assay type: cell-based
[12] = target: Protein kinase C alpha type (Homo sapiens) (UniProt P17252); experiment: Inhibition of PKCalpha (unknown origin) at 10 uM assessed as residual enzyme activity
[13] = target: Mitogen-activated protein kinase 11 (Homo sapiens) (UniProt Q15759); experiment: Inhibition of P38beta (unknown origin) at 10 uM assessed as residual enzyme activity
HL-60 [14] = experiment: Inhibition of ERK phosphorylation in human HL60 cells at 0.1 to 10 uM after 12 hrs by Western blot method; assay type: cell-based
[15] = target: Receptor-type tyrosine-protein kinase FLT3 (Homo sapiens, UniProt P36888); experiment: Inhibition of FLT3 (unknown origin) by kinase hot spot assay
[16] = target: Mitogen-activated protein kinase 8 (Homo sapiens) (UniProt P45983); experiment: Inhibition of JNK1 (unknown origin) at 10 uM assessed as residual enzyme activity
[17] = Cytotoxicity against human U87MG cells assessed as cell viability at 1 uM after 24 hrs by WST1 assay; assay type: functional, U-87MG ATCC; conditions: U-87 MG, read-out: Activity
[18] = target: Proto-oncogene tyrosine-protein kinase Src (Homo sapiens) (UniProt P12931); experiment: Inhibition of c-Src (unknown origin) at 10 uM assessed as residual enzyme activity
[19] = target: Tyrosine-protein kinase Lyn (Homo sapiens) (UniProt P07948); experiment: Inhibition of LYN (unknown origin) at 10 uM assessed as residual enzyme activity
[20] = target: Hepatocyte growth factor receptor (Homo sapiens) (UniProt P08581); experiment: Inhibition of c-Met (unknown origin) at 10 uM assessed as residual enzyme activity
[21] = target: Epidermal growth factor receptor (Homo sapiens) (UniProt P00533); experiment: Inhibition of EGFR (unknown origin) at 10 uM assessed as residual enzyme activity
[22] = target: Cyclin-dependent kinase 5/CDK5 activator 1 (Homo sapiens) (UniProt Q00535+Q15078); experiment: Inhibition of CDK5/p35 (unknown origin) at 10 uM assessed as residual enzyme activity; assay type: protein-complex assay
[23] = target: Ribosomal protein S6 kinase beta-1 (Homo sapiens) (UniProt P23443); experiment: Inhibition of p70S6K (unknown origin) at 10 uM assessed as residual enzyme activity
[24] = target: Serine/threonine-protein kinase STK11 (Homo sapiens) (UniProt Q15831); experiment: Inhibition of LKB1 (unknown origin) at 10 uM assessed as residual enzyme activity
[25] = target: Mitogen-activated protein kinase 14 (Homo sapiens) (UniProt Q16539); experiment: Inhibition of P38alpha (unknown origin) at 10 uM assessed as residual enzyme activity
[26] = target: Aurora kinase A (Homo sapiens) (UniProt O14965); experiment: Inhibition of Aurora A (unknown origin) at 10 uM assessed as residual enzyme activity
[27] = target: Fibroblast growth factor receptor 1 (Homo sapiens) (UniProt P11362); experiment: Inhibition of FGFR1 (unknown origin) at 10 uM assessed as residual enzyme activity
[28] = Cytotoxicity against mouse NIH/3T3 cells assessed as cell viability at 1 uM after 24 hrs by WST1 assay; assay type: cell-based, NIH3T3; conditions: read-out: Activity
[29] = tested on: RAF proto-oncogene serine/threonine-protein kinase; experiment: Inhibition of Raf1 (unknown origin) at 10 uM assessed as residual enzyme activity; conditions: Homo sapiens
[30] = target: ALK tyrosine kinase receptor (Homo sapiens) (UniProt Q9UM73); experiment: Inhibition of ALK (unknown origin) at 10 uM assessed as residual enzyme activity
MV4-11 [31] = experiment: Induction of apoptosis in human MV4-11 cells assessed as caspase 3 cleavage at 0.1 to 10 uM after 12 hrs by Western blot method; assay type: functional, cell-based
[32] = target: CDK1/Cyclin A (Homo sapiens) (UniProt P06493+P20248); experiment: Inhibition of CDK1/Cyclin A (unknown origin) at 10 uM assessed as residual enzyme activity; assay type: protein-complex assay
[33] = target: Leukocyte tyrosine kinase receptor (Homo sapiens) (UniProt P29376); experiment: Inhibition of LTK (unknown origin) at 10 uM assessed as residual enzyme activity
[34] = target: Proto-oncogene tyrosine-protein kinase receptor Ret (Homo sapiens) (UniProt P07949); experiment: Inhibition of RET (unknown origin) at 10 uM assessed as residual enzyme activity
[35] = target: Mitogen-activated protein kinase 3 (Homo sapiens) (UniProt P27361); experiment: Inhibition of ERK1 (unknown origin) at 10 uM assessed as residual enzyme activity
[36] = target: Mitogen-activated protein kinase 1 (Homo sapiens) (UniProt P28482); experiment: Inhibition of ERK2 (unknown origin) at 10 uM assessed as residual enzyme activity
MCF7 = experiment: Cytotoxicity against human MCF7 cells assessed as cell viability at 1 uM after 24 hrs by WST1 assay; assay type: functional; conditions: MCF7, 24 h, read-out: Activity
[37] = target: Platelet-derived growth factor receptor beta (Homo sapiens) (UniProt P09619); experiment: Inhibition of PDGFRbeta (unknown origin) at 10 uM assessed as residual enzyme activity
HL-60 [38] = experiment: Cytotoxicity against human HL60 cells assessed as cell growth inhibition after 24 hrs by WST1 assay; assay type: functional, cell-based

Mitogen-activated protein kinase 11 (Homo sapiens), sequence (Q15759 whole entry): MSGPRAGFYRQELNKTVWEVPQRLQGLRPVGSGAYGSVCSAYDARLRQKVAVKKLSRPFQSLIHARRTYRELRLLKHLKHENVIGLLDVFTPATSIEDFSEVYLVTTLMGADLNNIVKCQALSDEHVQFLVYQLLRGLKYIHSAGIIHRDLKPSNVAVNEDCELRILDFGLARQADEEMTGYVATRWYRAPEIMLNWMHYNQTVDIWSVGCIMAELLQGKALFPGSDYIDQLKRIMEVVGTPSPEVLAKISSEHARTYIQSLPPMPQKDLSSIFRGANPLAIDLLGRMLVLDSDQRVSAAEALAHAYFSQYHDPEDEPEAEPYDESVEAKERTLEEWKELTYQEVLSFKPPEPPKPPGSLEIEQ
Serine/threonine-protein kinase A-Raf (Homo sapiens), sequence (P10398 whole entry): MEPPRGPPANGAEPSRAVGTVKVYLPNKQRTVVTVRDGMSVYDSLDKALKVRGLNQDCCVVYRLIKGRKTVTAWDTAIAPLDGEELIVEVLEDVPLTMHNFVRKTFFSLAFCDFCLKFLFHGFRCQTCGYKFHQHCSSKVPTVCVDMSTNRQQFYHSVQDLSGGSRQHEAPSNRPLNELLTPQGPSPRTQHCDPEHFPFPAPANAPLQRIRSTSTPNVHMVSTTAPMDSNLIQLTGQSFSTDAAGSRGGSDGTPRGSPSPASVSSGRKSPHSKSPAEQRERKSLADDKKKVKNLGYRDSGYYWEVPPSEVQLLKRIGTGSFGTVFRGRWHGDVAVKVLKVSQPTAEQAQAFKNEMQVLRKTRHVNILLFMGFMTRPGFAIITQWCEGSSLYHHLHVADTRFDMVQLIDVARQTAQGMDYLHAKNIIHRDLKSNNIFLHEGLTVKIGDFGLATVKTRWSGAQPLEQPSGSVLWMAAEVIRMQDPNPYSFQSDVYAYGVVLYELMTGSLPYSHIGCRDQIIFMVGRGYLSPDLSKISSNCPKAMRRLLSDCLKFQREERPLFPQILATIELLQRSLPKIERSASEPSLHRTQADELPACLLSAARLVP
Leukocyte tyrosine kinase receptor (Homo sapiens), sequence (P29376 whole entry): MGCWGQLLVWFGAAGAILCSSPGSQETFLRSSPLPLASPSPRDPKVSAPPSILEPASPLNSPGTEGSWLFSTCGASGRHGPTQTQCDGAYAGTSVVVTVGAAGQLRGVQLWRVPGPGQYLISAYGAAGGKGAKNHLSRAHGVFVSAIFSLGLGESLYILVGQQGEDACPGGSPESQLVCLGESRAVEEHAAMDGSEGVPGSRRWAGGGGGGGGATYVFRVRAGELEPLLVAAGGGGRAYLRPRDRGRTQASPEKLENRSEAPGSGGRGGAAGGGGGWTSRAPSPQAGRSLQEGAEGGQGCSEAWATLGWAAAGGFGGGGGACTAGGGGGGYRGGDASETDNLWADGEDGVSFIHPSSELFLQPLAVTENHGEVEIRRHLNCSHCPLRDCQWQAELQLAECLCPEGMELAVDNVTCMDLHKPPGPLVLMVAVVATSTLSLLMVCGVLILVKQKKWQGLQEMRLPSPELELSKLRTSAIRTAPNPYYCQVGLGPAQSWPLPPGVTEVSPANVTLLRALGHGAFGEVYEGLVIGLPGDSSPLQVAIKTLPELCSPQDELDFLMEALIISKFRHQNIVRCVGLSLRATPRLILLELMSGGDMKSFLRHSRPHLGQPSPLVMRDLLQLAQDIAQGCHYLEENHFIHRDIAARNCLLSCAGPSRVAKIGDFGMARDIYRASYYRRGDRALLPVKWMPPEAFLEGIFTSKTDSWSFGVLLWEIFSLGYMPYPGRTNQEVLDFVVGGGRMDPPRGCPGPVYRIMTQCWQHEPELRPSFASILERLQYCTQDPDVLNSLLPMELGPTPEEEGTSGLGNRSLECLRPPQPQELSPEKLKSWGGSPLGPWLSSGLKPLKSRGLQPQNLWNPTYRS
Receptor-type tyrosine-protein kinase FLT3, sequence (P36888 whole entry): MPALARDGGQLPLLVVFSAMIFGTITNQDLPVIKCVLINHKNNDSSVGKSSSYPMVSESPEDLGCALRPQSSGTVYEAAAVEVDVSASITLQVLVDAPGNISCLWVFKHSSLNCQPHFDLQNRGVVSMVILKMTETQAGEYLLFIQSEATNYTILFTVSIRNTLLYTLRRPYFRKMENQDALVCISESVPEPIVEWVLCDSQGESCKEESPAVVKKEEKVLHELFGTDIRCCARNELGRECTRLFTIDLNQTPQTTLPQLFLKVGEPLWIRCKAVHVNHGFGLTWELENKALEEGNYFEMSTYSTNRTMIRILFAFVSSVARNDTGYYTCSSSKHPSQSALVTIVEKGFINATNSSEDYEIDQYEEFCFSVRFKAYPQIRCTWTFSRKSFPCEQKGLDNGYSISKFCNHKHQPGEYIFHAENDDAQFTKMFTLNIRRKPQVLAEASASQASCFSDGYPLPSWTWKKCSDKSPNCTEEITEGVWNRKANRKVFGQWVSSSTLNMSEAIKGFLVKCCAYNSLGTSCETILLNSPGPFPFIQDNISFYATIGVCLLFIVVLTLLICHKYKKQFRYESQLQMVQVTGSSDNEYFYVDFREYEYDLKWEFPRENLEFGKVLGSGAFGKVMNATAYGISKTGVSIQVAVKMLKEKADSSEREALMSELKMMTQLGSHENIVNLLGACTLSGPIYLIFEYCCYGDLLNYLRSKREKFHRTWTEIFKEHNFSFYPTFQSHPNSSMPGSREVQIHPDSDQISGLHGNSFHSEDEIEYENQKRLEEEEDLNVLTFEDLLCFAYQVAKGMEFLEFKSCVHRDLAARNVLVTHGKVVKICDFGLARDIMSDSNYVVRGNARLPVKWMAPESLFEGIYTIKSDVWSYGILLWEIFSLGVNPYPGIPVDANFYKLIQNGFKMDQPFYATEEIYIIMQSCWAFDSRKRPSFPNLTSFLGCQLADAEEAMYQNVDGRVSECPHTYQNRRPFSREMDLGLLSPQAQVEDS
Cyclin-dependent kinase 5/CDK5 activator 1 (Homo sapiens), sequence (Q00535 whole entry): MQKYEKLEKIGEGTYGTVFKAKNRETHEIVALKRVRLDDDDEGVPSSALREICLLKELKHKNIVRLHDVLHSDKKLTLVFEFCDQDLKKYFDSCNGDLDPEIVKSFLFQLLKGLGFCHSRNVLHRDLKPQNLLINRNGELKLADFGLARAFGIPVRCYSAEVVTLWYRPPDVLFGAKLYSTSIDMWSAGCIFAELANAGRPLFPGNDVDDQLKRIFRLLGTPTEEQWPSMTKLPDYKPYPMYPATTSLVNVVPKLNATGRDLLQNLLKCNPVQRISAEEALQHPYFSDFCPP
Cyclin-dependent kinase 5/CDK5 activator 1 (Homo sapiens), sequence (Q15078 99-307 partner limits assumed): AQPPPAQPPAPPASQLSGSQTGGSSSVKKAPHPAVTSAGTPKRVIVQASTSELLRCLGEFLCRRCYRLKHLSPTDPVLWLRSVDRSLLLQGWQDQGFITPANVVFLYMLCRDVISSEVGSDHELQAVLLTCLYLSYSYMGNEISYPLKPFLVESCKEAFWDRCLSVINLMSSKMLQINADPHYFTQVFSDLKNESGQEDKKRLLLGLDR
Tyrosine-protein kinase Lck (Homo sapiens), sequence (P06239 2-509 limits assumed): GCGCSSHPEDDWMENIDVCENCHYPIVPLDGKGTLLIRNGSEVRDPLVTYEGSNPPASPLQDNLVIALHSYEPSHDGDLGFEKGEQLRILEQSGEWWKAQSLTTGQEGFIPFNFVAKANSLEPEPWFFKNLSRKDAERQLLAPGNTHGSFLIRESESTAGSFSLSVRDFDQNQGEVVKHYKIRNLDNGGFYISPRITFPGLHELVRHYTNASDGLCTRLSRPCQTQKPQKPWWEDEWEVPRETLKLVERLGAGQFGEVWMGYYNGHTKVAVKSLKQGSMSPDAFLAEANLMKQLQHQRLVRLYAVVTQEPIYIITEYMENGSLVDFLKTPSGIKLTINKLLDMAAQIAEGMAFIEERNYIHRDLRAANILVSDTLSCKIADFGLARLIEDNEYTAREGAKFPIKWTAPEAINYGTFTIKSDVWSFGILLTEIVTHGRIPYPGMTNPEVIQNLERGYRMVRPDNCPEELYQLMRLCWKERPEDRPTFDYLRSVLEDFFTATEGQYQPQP
Mitogen-activated protein kinase 3 (Homo sapiens), sequence (P27361 whole entry): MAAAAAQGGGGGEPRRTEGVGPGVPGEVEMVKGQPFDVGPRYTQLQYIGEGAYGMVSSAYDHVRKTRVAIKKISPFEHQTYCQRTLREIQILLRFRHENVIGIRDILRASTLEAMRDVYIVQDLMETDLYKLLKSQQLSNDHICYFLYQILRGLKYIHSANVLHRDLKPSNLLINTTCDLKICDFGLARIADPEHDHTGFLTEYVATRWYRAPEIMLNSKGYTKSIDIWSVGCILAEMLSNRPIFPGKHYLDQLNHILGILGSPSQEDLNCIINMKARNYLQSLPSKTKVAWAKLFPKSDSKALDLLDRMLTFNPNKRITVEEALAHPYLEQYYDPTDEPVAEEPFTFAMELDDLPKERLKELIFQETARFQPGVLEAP

## COc1ccc(-c2n[nH]c3ncc(-c4ccc(Cl)cc4N)cc23)cc1
[1]
  Activity: 101%
[2]
  Activity: 98.9%
[3]
  Activity: 93.8%
MV4-11 [4]
  growth inhibition (GI): Dose-dependent effect
MV4-11 [4]; MV4-11, 24 h
  IC50: 592 nM
[5]
  Activity: 85.8%
[6]
  Activity: 102%
[7]
  Activity: 96.8%
[8]
  Activity: 99.2%
[9]
  Activity: 95.2%
[10]
  Activity: 77%
HL-60 [11]
  inhibition: inactive
[12]
  Activity: 84.5%
[13]
  Activity: 97.8%
HL-60 [14]
  inhibition: inactive
[15]
  IC50: 1300 nM
[16]
  Activity: 101%
[17]
  viability at 1 µM: 89%
[18]
  Activity: 78.7%
[19]
  Activity: 86.6%
[20]
  Activity: 118%
[21]
  Activity: 91.2%
[22]
  Activity: 87.2%
[23]
  Activity: 94.1%
[24]
  Activity: 101%
[25]
  Activity: 110%
[26]
  Activity: 87.7%
[27]
  Activity: 90.1%
[28]
  viability at 24 h, 1 µM: 106%
[29]
  Activity: 94.9%
[30]
  Activity: 96.5%
MV4-11 [31]
  Activity: Active
[32]
  Activity: 97.4%
[33]
  Activity: 92.9%
[34]
  Activity: 83.3%
[35]
  Activity: 95.4%
[36]
  Activity: 94%
MCF7
  viability at 1 µM: 86%
[37]
  Activity: 96.3%
HL-60 [38]
  growth inhibition (GI): inactive
